Experimental data from patent US11530216B2, “Deuterated colony stimulating factor-1 receptor (CSF-1R) inhibitors” (Genzyme Corporation, priority 2020, dated 2022).
“Also recorded” adds a separate entry of the source. Where two headings read alike, the source gives them in different places.

Legend:
[1] = tested on: MCP-1 production in iCell microglia (human iPSC derived microglia); experiment: MCP-1 ELISA, iCell human microglia, CSF1 stimulation; format: cell-based; details: 1.5625-200 nM, CSF1 100 ng/mL 24 hours
Procedure: (§1) iCell microglia (human iPSC derived microglia) were acquired from FujiFilm (cat #C1110, lot #105458). These cells were thawed and maintained in iCell Microglia Complete Media according the manufacture instructions. For this assay, iCell microglia were resuspended at a concentration of 5×10^5 cells/mL and 100 μL of this cell suspension was added to the inner 60 wells of a 96-well plate. iCell microglia were allowed to rest overnight at 37° C., 5% CO2. The following evening, the media was removed and replaced with Neurobasal Media (Gibco, cat #21103049) containing B27 supplement (Gibco, cat #17504044). Again, cells were allowed to rest overnight at 37° C., 5% CO2. […] Cells were then stimulated with 100 ng/mL recombinant human CSF1 for 24 hours. After stimulation, the culture supernatant was removed from each well and aliquoted into two different 96-well plates for subsequent ELISA assays.
Culture supernatants were assayed with the Quantikine Human MCP-1 ELISA kit (R&D Systems, cat #SCP00). […] After incubation, fifty microliters of the acid stop solution was added to each well, and the plate was read on the FlexStation3 Multi-Mode Microplate Reader (Molecular Devices, cat #Flex3) with SoftMax Pro Software at 450 nm.
(§2) iCell microglia (human iPSC derived microglia) were plated at 50,000 cells per well and rested overnight. […] Cell viability was assessed utilizing Promega's Cell Titer Glo Assay Kit. […]

[2] = tested on: primary mouse microglia (wild type, SOD1); experiment: CellTiter Glo 2.0 viability assay, wild-type and SOD1 primary microglia; format: cell-based; details: wild type and SOD1 cells
Procedure: The impact of a deuterated CSF-1R inhibitor of this disclosure on cytokine/chemokine production following CSF-1 or LPS stimulation in wild-type versus SOD1 mutant primary microglial cells was examined in the following experiments.
Methods Treatment and Stimulation of Primary Microglial Cells
(§3) Primary mouse microglia were suspended at a concentration of 5×10^5 cells/mL and 100 μL of this cell suspension was added to each well of a 96-well plate. Microglia cells were allowed to rest overnight at 37° C., 5% CO2. […] Cells were then stimulated with 100 ng/mL recombinant mouse M-CSF for 30 minutes or 10 ng/mL lipopolysaccharide for 24 hours. After stimulation, the culture supernatant was removed from each well and aliquoted into two different 96-well plates for subsequent ELISA assays.
Cell viability was determined using Promega's Cell Titer Glo Luminescent Cell Viability Assay. […] 100 μL was transferred from each well to a white plate and luminescence was read immediately on the FlexStation3 plate reader.
Primary murine microglia were plated at 50,000 cells per well and rested overnight. […] Cell viability was assessed after 24 hours utilizing Promega's Cell Titer Glo Assay Kit. Both CSF-1 and LPS stimulation induced a slight increase in the cell viability readout versus unstimulated cells (FIGS. 8A-8B and FIGS. 9A-9B).

[3] = tested on: MCP-1 production in primary murine microglial cells; experiment: MCP-1 ELISA, primary mouse microglia after CSF-1 stimulation; format: cell-based; details: Mus musculus, Microglia, 24 h, read-out: IC50, MCP-1 production
Procedure: as §3, with “to the inner 60 wells” for “to each well”, “of three” for “of a”, “96-well plates.” for “96-well plate.”, “mouse CSF-1” for “mouse M-CSF for 30 minutes or 10 ng/mL lipopolysaccharide”, “assays. Plates were fixed with 4% PFA for future immunocytochemistry analysis.” for “assays.”

[4] = tested on: iCell microglia (human iPSC derived microglia); experiment: CellTiter Glo 2.0 viability assay, iCell human microglia, CSF1 stimulation; format: cell-based; details: 1.5625-200 nM, CSF1 100 ng/mL 24 hours
Procedure: as §1
Cell viability was determined using the CellTiter Glo 2.0 Luminescent Cell Viability Assay (Promega, cat #G9242). […] 100 μL was transferred from each well to a white plate and luminescence was read immediately on the FlexStation3 Multi-Mode Microplate Reader (Molecular Devices, cat #Flex3) with SoftMax Pro Software.
as §2

[5] = tested on: primary murine microglia; experiment: Immunostaining of primary microglia (Iba1+ area, DAPI+ nuclei) after CSF-1 stimulation; format: cell-based, mouse; details: Mus musculus, Microglia
Procedure: Primary mouse microglia were suspended at a concentration of 5×10^5 cells/mL and 100 μL of this cell suspension was added to the inner 60 wells of three 96-well plates. Microglia cells were allowed to rest overnight at 37° C., 5% CO2. […] Cells were then stimulated with 100 ng/mL recombinant mouse CSF-1 for 24 hours. After stimulation, the culture supernatant was removed from each well and aliquoted into two different 96-well plates for subsequent ELISA assays. Plates were fixed with 4% PFA for future immunocytochemistry analysis. Following the stimulation, cells were fixed with 4% PFA for 20 minutes at room temperature. Cells were then rinsed in PBS, washed 3×5 minutes in 0.2% PBT (0.2% Triton X-100 in PBS) and blocked with 10% donkey serum/0.2% PBT for 1 hour at room temperature. […] After staining, plates were imaged on the IN Cell Analyzer 2200 with 9 fields of view acquired per well. […] A one-way ANOVA was used to determine the statistical significance of differences between samples. […] Following a microglial stimulation, immunocytochemistry was completed with Iba1, Ki67, and DAPI to determine microglial morphology, proliferative state, and number. InCell imaging microsope and analysis software was used to quantify Iba1^+ area, and the number of DAPI^+ nuclei within the cultures.

[2H]c1nc2cccnc2n1Cc1cc(OC)c2c(c1)O[C@@H](C)[C@H](c1ccc(OC)nc1)O2 [Compound 6, 3-(((2S,3S)-8-methoxy-2-(6-methoxypyridin-3-yl)-3-methyl-2,3-dihydrobenzo[b][1,4]dioxin-6-yl)methyl)-3H-imidazo[4,5-b]pyridine-2-d]
MCP1 production [1]: significantly reduced MCP1 production in a concentration dependent manner | cell viability ([2]; CSF-1 stimulation, 50, 100, 200 nM): no toxic effect on microglia at the concentrations assessed; also recorded: slightly reduced the CSF-1-induced increase in cell viability | cell viability ([2]; LPS stimulation, 50, 100, 200 nM): no deleterious effect on cell viability | IC50 [3]: 23.2 nM | human microglia viability [4]: did not impact human microglia viability at the concentrations assessed | IC50 ([5]; read-out: IC50 for DAPI (DAPI+ cell number)): 248 nM | IC50 ([5]; read-out: IC50 for Iba1 (Iba1+ area)): 84.6 nM
